Results as given in patent US20050112573A1, “Method of detecting toxic substance” (priority 2001, published 2005).

Tested on: yeast genes (level of expressed mRNA)
Assay: DNA chip analysis of expressed mRNA of yeast genes after 2 h culture with a toxic chemical substance
Assay type: cell-based, Saccharomyces cerevisiae S288C
Conditions: for The level of expressed mRNA in the presence of chemical substance/ (ratio to absence of chemical substance): stress protein genes, DNA chip
Method in brief: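 S. cerevisiae S288C grown at 25° C in YPD; toxicant added at log phase at growth-inhibitory, non-lethal levels for 2 h, untreated cells as control. Poly(A) mRNA reverse-transcribed with Cy3/Cy5-dUTP, hybridized to whole-genome chip at 65° C >12 h; value is fluorescence ratio versus untreated.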

CCCCCCCCCCCCOS(=O)(=O)[O-].[Na+] [(18), sodium lauryl sulfate]
The level of expressed mRNA in the presence of chemical substance/The level of expressed mRNA in the absence of chemical substance (yeast gene YIL140W): 1.0 | The level of expressed mRNA in the presence of chemical substance/ (in its absence), gene YJL070C (yeast gene YJL070C, ratio of DNA chip fluorescence intensity to that without chemical substance): 1.2 | The level of expressed mRNA in the presence of chemical substance/The level of expressed mRNA in the absence of chemical substance (yeast gene YJL073W): 1.0 | The level of expressed mRNA in the presence of chemical substance/The level of expressed mRNA in the absence of chemical substance (yeast gene YJL089W): 1.1 | The level of expressed mRNA in the presence of chemical substance/ (ratio to absence), gene YJL096W (yeast gene YJL096W, mitochondria-located protein genes, 2 h culture with chemical): 1.2 | The level of expressed mRNA in the presence of chemical substance/The level of expressed mRNA in the absence of chemical substance (yeast gene YJL116C): 0.7 | The level of expressed mRNA in the presence of chemical substance/ (ratio to absence of chemical substance) (yeast gene YJL158C): 1.4 | The level of expressed mRNA in the presence of chemical substance/ (in its absence), gene YJL167W (yeast gene YJL167W, ratio of DNA chip fluorescence intensity to that without chemical substance): 2.1 | The level of expressed mRNA in the presence of chemical substance/ (ratio to absence), gene YJL180C (yeast gene YJL180C, mitochondria-located protein genes, 2 h culture with chemical): 1.4 | The level of expressed mRNA in the presence of chemical substance/ (in its absence), gene YJL216C (yeast gene YJL216C, ratio of DNA chip fluorescence intensity to that without chemical substance): 2.0 | The level of expressed mRNA in the presence of chemical substance/The level of expressed mRNA in the absence of chemical substance (yeast gene YJR004C): 0.4 | The level of expressed mRNA in the presence of chemical substance/The level of expressed mRNA in the absence of chemical substance (yeast gene YJR086W): 1.6 | The level of expressed mRNA in the presence of chemical substance/ (ratio to absence of chemical substance) (yeast gene YJR090C): 1.0 | The level of expressed mRNA in the presence of chemical substance/The level of expressed mRNA in the absence of chemical substance (yeast gene YKL008C): 1.9 | The level of expressed mRNA in the presence of chemical substance/The level of expressed mRNA in the absence of chemical substance (yeast gene YKL013C): 1.7 | The level of expressed mRNA in the presence of chemical substance/The level of expressed mRNA in the absence of chemical substance (yeast gene YKL039W): 1.3 | The level of expressed mRNA in the presence of chemical substance/The level of expressed mRNA in the absence of chemical substance (yeast gene YKL041W): 1.3 | The level of expressed mRNA in the presence of chemical substance/The level of expressed mRNA in the absence of chemical substance (yeast gene YKL096W): 0.7 | The level of expressed mRNA in the presence of chemical substance/ (ratio to absence of chemical substance) (yeast gene YKL164C): 0.8 | The level of expressed mRNA in the presence of chemical substance/The level of expressed mRNA in the absence of chemical substance (yeast gene YKL165C): 1.0 | The level of expressed mRNA in the presence of chemical substance/The level of expressed mRNA in the absence of chemical substance (yeast gene YKL193C): 2.3 | The level of expressed mRNA in the presence of chemical substance/ (in its absence), gene YKR009C (yeast gene YKR009C, ratio of DNA chip fluorescence intensity to that without chemical substance): 2.5 | The level of expressed mRNA in the presence of chemical substance/ (in its absence), gene YKR034W (yeast gene YKR034W, ratio of DNA chip fluorescence intensity to that without chemical substance): 1.0 | The level of expressed mRNA in the presence of chemical substance/ (ratio to absence of chemical substance) (yeast gene YKR053C): 2.4 | The level of expressed mRNA in the presence of chemical substance/ in its absence, gene YKR058W (yeast gene YKR058W, energy system protein genes, 2 h culture with the chemical, ratio to control without chemical): 1.6 | The level of expressed mRNA in the presence of chemical substance/ (in its absence), gene YLR006C (yeast gene YLR006C, ratio of DNA chip fluorescence intensity to that without chemical substance): 1.0 | The level of expressed mRNA in the presence of chemical substance/ (ratio to absence of chemical substance) (yeast gene YLR006C): 1.0 | The level of expressed mRNA in the presence of chemical substance/The level of expressed mRNA in the absence of chemical substance (yeast gene YLR120C): 2.9 | The level of expressed mRNA in the presence of chemical substance/The level of expressed mRNA in the absence of chemical substance (yeast gene YLR136C): 1.4 | The level of expressed mRNA in the presence of chemical substance/The level of expressed mRNA in the absence of chemical substance (yeast gene YLR178C): 3.6 | The level of expressed mRNA in the presence of chemical substance/The level of expressed mRNA in the absence of chemical substance (yeast gene YLR250W): 2.2 | The level of expressed mRNA in the presence of chemical substance/ in its absence, gene YLR295C (yeast gene YLR295C, energy system protein genes, 2 h culture with the chemical, ratio to control without chemical): 1.5 | The level of expressed mRNA in the presence of chemical substance/ (ratio to absence), gene YLR295C (yeast gene YLR295C, mitochondria-located protein genes, 2 h culture with chemical): 1.5 | The level of expressed mRNA in the presence of chemical substance/The level of expressed mRNA in the absence of chemical substance (yeast gene YLR327C): 5.3 | The level of expressed mRNA in the presence of chemical substance/ (in its absence), gene YLR351C (yeast gene YLR351C, ratio of DNA chip fluorescence intensity to that without chemical substance): 1.8 | The level of expressed mRNA in the presence of chemical substance/The level of expressed mRNA in the absence of chemical substance (yeast gene YLR356W): 1.0 | The level of expressed mRNA in the presence of chemical substance/The level of expressed mRNA in the absence of chemical substance (yeast gene YLR362W): 1.3 | The level of expressed mRNA in the presence of chemical substance/ (in its absence), gene YLR375W (yeast gene YLR375W, ratio of DNA chip fluorescence intensity to that without chemical substance): 1.0 | The level of expressed mRNA in the presence of chemical substance/The level of expressed mRNA in the absence of chemical substance (yeast gene YLR391W): 0.9 | The level of expressed mRNA in the presence of chemical substance/The level of expressed mRNA in the absence of chemical substance (yeast gene YLR429W): 0.9 | The level of expressed mRNA in the presence of chemical substance/ in its absence, gene YML129C (yeast gene YML129C, energy system protein genes, 2 h culture with the chemical, ratio to control without chemical): 1.3 | The level of expressed mRNA in the presence of chemical substance/ (ratio to absence), gene YML129C (yeast gene YML129C, mitochondria-located protein genes, 2 h culture with chemical): 1.3 | The level of expressed mRNA in the presence of chemical substance/The level of expressed mRNA in the absence of chemical substance (yeast gene YMR004W): 1.3 | The level of expressed mRNA in the presence of chemical substance/ (ratio to absence), gene YMR023C (yeast gene YMR023C, mitochondria-located protein genes, 2 h culture with chemical): 1.4 | The level of expressed mRNA in the presence of chemical substance/The level of expressed mRNA in the absence of chemical substance (yeast gene YMR094W): 1.0 | The level of expressed mRNA in the presence of chemical substance/The level of expressed mRNA in the absence of chemical substance (yeast gene YMR104C): 1.9 | The level of expressed mRNA in the presence of chemical substance/ (ratio to absence of chemical substance) (yeast gene YMR186W): 1.1 | The level of expressed mRNA in the presence of chemical substance/The level of expressed mRNA in the absence of chemical substance (yeast gene YMR219W): 0.9 | The level of expressed mRNA in the presence of chemical substance/The level of expressed mRNA in the absence of chemical substance (yeast gene YMR226C): 2.0 | The level of expressed mRNA in the presence of chemical substance/ in its absence, gene YMR267W (yeast gene YMR267W, energy system protein genes, 2 h culture with the chemical, ratio to control without chemical): 1.3 | The level of expressed mRNA in the presence of chemical substance/ (ratio to absence), gene YMR267W (yeast gene YMR267W, mitochondria-located protein genes, 2 h culture with chemical): 1.3 | The level of expressed mRNA in the presence of chemical substance/ in its absence, gene YMR267W (yeast gene YMR267W, ratio of DNA chip fluorescence intensity to that without chemical substance): 1.3 | The level of expressed mRNA in the presence of chemical substance/The level of expressed mRNA in the absence of chemical substance (yeast gene YMR275C): 0.7 | The level of expressed mRNA in the presence of chemical substance/The level of expressed mRNA in the absence of chemical substance (yeast gene YMR276W): 0.7 | The level of expressed mRNA in the presence of chemical substance/ (in its absence), gene YMR278W (yeast gene YMR278W, ratio of DNA chip fluorescence intensity to that without chemical substance): 1.5 | The level of expressed mRNA in the presence of chemical substance/ (in its absence), gene YMR293C (yeast gene YMR293C, ratio of DNA chip fluorescence intensity to that without chemical substance): 1.0 | The level of expressed mRNA in the presence of chemical substance/The level of expressed mRNA in the absence of chemical substance (yeast gene YMR314W): 1.6
